{"source": "paper PMC6406907", "about": "“A H2AX–CARP-1 Interaction Regulates Apoptosis Signaling Following DNA Damage” (Cancers, 2019)", "tested_on": "γH2AX", "assay": "Confocal immunofluorescence of γH2AX, HeLa", "assay_type": "cell-based, human", "conditions": "HeLa expressing EGFP-H2AX (1–35) vs EGFP, Adriamycin-treated", "description": "Cells were plated onto chamber slides one day before treatment. Following treatment of cells with respective compounds, the adherent cells were fixed with 5% formaldehyde for 10 min and then washed with phosphate buffered saline (PBS). Samples were blocked (0.5% NP-40, 5% milk powder, 1% fetal bovine serum) for 30 min. After a single wash with PBS, cells were incubated with primary antibodies for 45 to 60 min. Coverslips were washed with PBS and then incubated with secondary antibodies for another 45 to 60 min. They were then washed with PBS and mounted with 0.1 μg/mL 4′,6′-diamidino-2-phenylindole (DAPI) containing mounting solution. […]\nOur next objective was to analyze the biological significance of the CARP-1–H2AX interaction in cells. […] Next, we measured activation of caspases as an apoptosis readout in cells expressing myc-His-tagged wild-type CARP-1 or CARP-1 (Δ600–650) proteins that were either untreated or treated with Adriamycin or CFM compounds as detailed in Section 2. We utilized a lower, 4–5 μM dose of Adriamycin or CFM compounds because a 10 μM Adriamycin dose caused interference in signal output/readout in this particular assay, likely due to background fluorescence that is emitted by higher dose of Adriamycin. […]", "note": "No end group written: not given here."}
{"substance": "EGFP-H2AX (1–35): EGFP-tagged fusion protein stably expressed in MDA-MB-468 and HeLa sublines (MSGRGKTGGKARAKAKSRSSRAGLQFPVGRVHRLL; also: EGFP fusion, end not given here; UniProt P16104 1-35, looked up, fragment)", "values": [{"measurement": "nuclear presence of γH2AX", "value": "increased nuclear presence of γH2AX"}]}
